Literature values in PMC8982769 (Open Forum Infectious Diseases, 2022).

Key:
[1] = tested on: enterococci carrying vanA, vanB, and vanC genes; settings: in vitro
[2] = tested on: VRE; settings: within 48 to 72 hours
[3] = humans
[4] = within 6 to 12 hours after IV administration
[5] = up to 24 grams of parenteral HPβCD daily for 15 days

MIC90 [1] | Elimination half-life [3] | dose recovered in the urine [4] | Substance | log kill [2] | side effects [5]
≤ 0.5 µg/mL |  |  | Oritavancin diphosphate | > 3 log | 
 | 1.7 to 1.9 h | 100% | 2-hydroxypropyl-β-cyclodextrin [HPβCD] |  | no side effects were observed
